Results on 5 molecules are retold here after patent US6482410B1, “Cytotactin derivatives that stimulate attachment and neurite outgrowth, and methods of making same” (The Scripps Research Institute, priority 1994, dated 2002).

In assay [1] the target is β1 integrin on chicken SL29 fibroblasts and chick dorsal root ganglion neurons (chicken) (UniProt P07228). Nature of the assay: cell-based or functional assay.
The target in assay [2] is integrin receptor mediating RGD-dependent, not β1 integrin-mediated attachment of chicken SL29 fibroblasts and DRG cells. Nature of the assay: cell-based or functional assay.
For assay [3], the system named is dorsal root ganglia (DRG) neurons. Nature of the assay: Two-dimensional neurite outgrowth assay, DRG, 15 hours. The settings on record: 15 hours. It is filed as cell-based, chicken. As to the method: (§1) Dorsal root ganglia (DRG) cells or forebrain neurons were prepared for the cell attachment assays as follows. DRG from day 6 chicken embryos or forebrains from day 7 chicken embryos were dissected into HBSS. The tissue was pelleted by centrifugation and resuspended in CMF-HBSS and incubated at 37° C. for 10 minutes. The tissue was pelleted again and resuspended in CMF-HBSS containing 0.08% trypsin and allowed to trypsinize for 20 minutes at 37° C. An equal volume of DMEM/F12, 10% FCS, 20 ng/ml nerve growth factor (NGF) (for DRG cells only), 10 μg/ml gentamycin (10% medium) was added, and the tissue was pelleted and resuspended in 2 ml of the 10% medium. The cells were triturated with a fire-polished Pasteur pipette for 15 strokes, and the cells were washed and resuspended in 10 ml of 10% medium. DRG cells were plated in a 10 cm tissue culture dish and incubated for 1 hour at 37° C. in 5% CO2, to allow for attachment of contaminating fibroblasts.
(§2) After replating, the cells were harvested, pelleted and washed three times in DMEM/F12, 1% fetal calf serum (FCS), 20 ng/ml NGF (for DRG cells only), 10 μg/ml gentamycin (1% medium), and the number of cells determined using a hemocytometer. The DRG were resuspended to a density of 6×10^5 cells/ml in attachment buffer. The neurons were resuspended to a density of 2×10^4 cells/ml in 1% medium and added to substrates and placed at 37° C., 5% CO2 for 15 hours.
(§3) After the growth period, the dishes were gently rinsed with PBS to remove unbound cells, fixed with 1% glutaraldehyde, and viewed by phase contrast microscopy. Ten to forty cells were analyzed for each substrate. Cells were judged as neurite-bearing if the length of the processes was greater than one cell diameter. All cells with neurites were photographed with a 20× objective and total neurite length per neurite-bearing cell was derived from the photographic prints. Percentage of neuronal sprouting was calculated from at least six experiments. Neurite length was calculated from at least three experiments.
This extensive neurite outgrowth after 40 hours made quantitation of the percentage of neurite-bearing cells and neurite length difficult. To analyze quantitatively the effect of CT/TN fusion proteins on DRG neurite outgrowth, DRG cells were therefore plated at low density on CT/TN or CT/TN fragments and analyzed after 15 hours in culture for the percentage of cells that sprouted neurites greater than one cell diameter and for the everage neurite length per neuron. These conditions enhanced the number of isolated cells and discouraged the cell-cell interactions and fasciculation that occurred in the long-term cultures.
The proteins used in the neurite outgrowth assays are the same as those used in the cell attachment assays. […] In addition, poly-L-lysine was adsorbed to the solid support. […] Any cells adhering to the solid support were examined for sprouting and neurite length as defined herein.
Proteins used in the neurite outgrowth assays were prepared as described in Example 5.A.2.
Dorsal root ganglia (DRG) from day 6 chicken embryos were prepared as described in Example 5.A.4. For the neurite outgrowth assays, the DRG were resuspended at a density of 2×10^4 cells/ml in 1% medium, added to solid support, and placed at 37° C. in 5% CO2 for 15 hours. After the attachment and growth period, the dishes were gently rinsed with PBS to remove unbound cells, fixed with 1% (v/v) glutaraldehyde, and viewed by phase contrast microscopy. Ten to thirty cells were analyzed for each adsorbed protein spot. Cells were judged as neurite-bearing if the length of the processes were greater than one cell diameter. All cells with neurites were photographed with a 40× objective and the total neurite length per neurite-bearing cell was derived from the prints. The percent of cells that were sprouting and the average neurite length was derived from six and three independent experiments, respectively. […]

Assay [4] deals with neurons from chick forebrain. Briefly: CNS neurite outgrowth, forebrain neurons, 7 hours. It counts as cell-based. The settings on record: 7 hour growth period. Here is the method:
as §1, §2, §3
To investigate whether CNS neurons could also extend neurites on CT/TN and CT/TN fragments, neurons from chick forebrain were plated at low density on CT/TN, CT/TN fragments and polylysine, and analyzed for neurite outgrowth after a 7 hour growth period (a time period found to be optimal for stable neurite outgrowth from these cells). The lengths of neurites on substrates that supported sprouting were essentially the same for the forebrain neurons and were therefore not quantitated further.

Assay [5] concerns chicken fibroblast cell line SL29. Briefly: Cell attachment assay, fibroblasts on protein-coated solid support. It is filed as cell-based. The settings on record: CT coated at 20 μg/ml, binding fragments at 0.75 μM, non-binding at three times that, 1 hour. Here is the method: In the cell attachment assays, a single cell suspension was allowed to settle for a fixed period of time onto a solid support that has been coated with the different CT-derived proteins to be tested for cell attachment (Friedlander, et al., J. Cell Biol. 107: 2329-2340 (1988)). After removing the unbound and loosely bound cells by washing, the attachment and morphology of those cells remaining on the dish were analyzed.
Solid supports, consisting of a circular array of CT or CT:GST fusion proteins bound to a dish, were prepared as follows for the cell attachment assay.
For the initial study, non tissue-culture treated polystyrene plates (Falcon 1008) were spotted with 2 μl of a 0.5 to 1.5 μM solution of CT in PBS for 30 minutes to coat a specific area on the dish with CT. CT was isolated from chicken brain or from fibroblast culture supernatant as described in Crossin, PNAS 88: 11403-11407 (1991) and Hoffman et al., J. Cell Biol. 106: 519-532 (1988). CT was placed in a circular array near the center of the dish and incubated at 37° C. for 30 minutes. After CT had adsorbed to the dish, the central portion of the dish was washed once with 250 μl of 20% (w/v) BSA in PBS. Non-specific binding sites on the dish were then blocked with 250 μl of 20% (w/v) BSA in PBS by incubation for 2 to 3 hours at room temperature.
For the subsequent study with the CT:GST fusion proteins, non tissue-culture treated polystyrene plates (Falcon 1008) were spotted with 2 μl of a 0.5 to 1.5 μM solution of CT:GST fusion protein in PBS as prepared in Example 5.A.2 or GST in PBS for 30 minutes to coat a specific area on the dish with CT:GST fusion protein or GST. The proteins to be tested were placed in a circular array near the center of the dish and incubated at 37° C. for 30 minutes. After the proteins adsorbed to the dish, the central portion of the dish was washed once with 250 μl of 20% (w/v) BSA in PBS. Non-specific binding sites on the dish were then blocked with 250 μl of 20% (w/v) BSA in PBS by incubation for 2 to 3 hours at room temperature.
The chicken fibroblast cell line SL29 (ATCC CRL 1590) was grown to confluence in Dulbecco's Minimum Essential Medium (DMEM; Gibco-BRL, Gaithersburg, Mass.) with 10% (v/v) fetal calf serum (FCS; Gibco-BRL) with penicillin and streptomycin. The cells were passaged the night prior to the assay and seeded at a density of 1:2. Cells were harvested in calcium, magnesium-free Hank's balanced salt solution (CMF-HBSS, Gibco-BRL) with 20 mM Hepes buffer and 5 mM EDTA. Harvested cells were washed in attachment buffer (CMF-HBSS with 10 mM Hepes, 1 mM CaCl2, 1 mM MgCl2, 0.1 mM MnCl2, and 2% (w/v) bovine serum albumin (BSA)) three times. The number of cells was quantitated by counting the cells in a hemocytometer. The cells were resuspended in attachment buffer to a density of 6×10^5 cells/ml.
Chicken fibroblasts, DRG, and solid supports (dishes) coated with CT for use in the cell attachment assays were prepared as described in Examples 5.A.2-4, respectively. The chicken fibroblasts and DRG at a density of 6×10^5 cells/ml were added to the prepared dishes and incubated at 37° C. in 5% CO2 for 1 hour. The dishes were then washed three times in PBS with gentle swirling to remove unattached cells, fixed in 1% glutaraldehyde in PBS, and viewed by phase contrast microscopy. The number of bound cells was determined using a 10× objective with an eyepiece reticle. The number of cells was determined in four fields for each fusion protein dot as the number of cells bound per […]. CT was tested in triplicate. The number of cells bound for CT was expressed as the average of the twelve measurements±standard deviation […].
CT, coated at a concentration of 20 μg/ml, was used as a solid support for SL29 fibroblast attachment. […] Fragments of CT were generated using the pGEX fusion protein system, as described in Example 1. The cell attachment assay was performed essentially as described above for the cell attachment assay to intact CT. […]

A further assay deals with DRG cells. Nature of the assay: DRG neurite outgrowth, 40 hour culture, morphology. It counts as cell-based, chicken. The settings on record: DRG cells cultured 40 hours. As to the method:
In order to assess the effect to the cell binding regions of CT/TN on the outgrowth of neurites from PNS neurons, DRG cells were cultured for 40 hours on popylysine, CTfn3, CTfn6, CTfg, and CTfn3-CTfn6 mixed substrates. The cultures were then fixed and the cell and neurite morphology was analyzed by phase contrast microscopy. The cells were plated on plastic substrates coated with the same concentrations of CTITN and fusion proteins used in the attachment assay.

Chain of UniProt P07228 (P07228 25-803, form in doubt): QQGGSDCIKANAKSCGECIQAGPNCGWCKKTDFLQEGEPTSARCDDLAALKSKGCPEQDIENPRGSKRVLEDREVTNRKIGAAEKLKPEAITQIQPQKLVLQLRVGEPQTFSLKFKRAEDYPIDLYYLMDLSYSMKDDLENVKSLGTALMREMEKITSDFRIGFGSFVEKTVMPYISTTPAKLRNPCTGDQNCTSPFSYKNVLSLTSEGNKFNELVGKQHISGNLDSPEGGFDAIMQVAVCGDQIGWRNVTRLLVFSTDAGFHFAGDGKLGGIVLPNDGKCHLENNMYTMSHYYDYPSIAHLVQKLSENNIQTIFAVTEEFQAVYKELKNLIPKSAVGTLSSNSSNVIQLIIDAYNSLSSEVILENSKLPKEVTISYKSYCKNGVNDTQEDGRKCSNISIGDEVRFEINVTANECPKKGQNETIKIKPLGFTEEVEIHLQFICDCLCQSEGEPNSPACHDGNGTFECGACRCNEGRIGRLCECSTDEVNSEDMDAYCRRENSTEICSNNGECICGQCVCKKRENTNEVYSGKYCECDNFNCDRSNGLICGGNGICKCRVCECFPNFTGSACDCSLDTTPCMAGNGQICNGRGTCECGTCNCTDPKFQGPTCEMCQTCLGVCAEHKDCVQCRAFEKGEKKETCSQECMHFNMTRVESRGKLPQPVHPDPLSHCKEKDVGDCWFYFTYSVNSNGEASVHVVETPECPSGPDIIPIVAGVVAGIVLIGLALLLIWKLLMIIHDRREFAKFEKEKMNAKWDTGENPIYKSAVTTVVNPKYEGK

The molecule “CTfn5-6 fusion protein spanning the fifth and sixth FN type III repeats of chicken cytotactin (from UniProt P08515 1-218)” showed an inhibition of SL29 fibroblast binding to CTfn5-6 by mAb JG22 in assay [1] of 77%.

As for “CTfg CT:GST fusion protein (fibrinogen domain of chicken cytotactin fused to GST) (from UniProt P10039 1568-1808)”, the decrease in DRG cell attachment to CTfg after preincubation with JG22 in assay [1] amounted to 19%.

In assay [2], “intact cytotactin (CT) isolated from chicken brain or from fibroblast culture supernatant (from UniProt P10039 34-1808) (ligand)” gave an inhibition of SL29 fibroblast attachment to intact CT/TN by GRGDTP (1 mg/ml) of 33%, an inhibition of cell attachment to intact CT by soluble GRGDSP (1 mg/ml) of 73% and an inhibition of cell attachment to intact CT by soluble GRGDTP (1 mg/ml) of 70%.

On to “CT: intact cytotactin isolated from chicken brain or fibroblast culture supernatant”, for which the “percentage of DRG cells that sprouted neurites” value is listed as “About 50%” in assay [3] (DRG) and 30% in assay [3] (DRG, listed as CT/TN). Moreover, the “% Sprouting” value in assay [3] (Table 4, DRG, neurites greater than one cell diameter) was determined as 30 ± 3 %; in assay [4] (Table 4, FB (forebrain) neurons), 0%. Further, the “Neurite Length” value in assay [3] (Table 4, DRG, per neurite-bearing cell) amounted to 332 ± 177 microns. The “Percent Sprouting” value in assay [3] (Table 5, DRG, six experiments) was 30 ± 3. For the same molecule, in assay [3] (Table 5, DRG, three experiments), the “Neurite Length (in microns)” value is listed as 332 ± 177 microns. For the same molecule, the “forebrain cell attachment” value in assay [4] was “low level of attachment”. The “forebrain neuron sprouting versus polylysine” value in assay [4] was “did not support sprouting of neurites”. The “SL29 fibroblast attachment to coated substrate (words)” value was “readily attached” in assay [5] and “bound well” in assay [5] (listed as CT/TN).

B1: CTfn3-6: single construct containing fibronectin type III repeats III and VI, SEQ ID NO 29 (protein, listed as Gallus gallus)
chain: LDAPSQIEAKDVTDTTALITWSKPLAEIEGIELTYGPKDVPGDRTTIDLSEDENQYSIGNLRPHTEYEYEVTLISRRGDMESDPAKEVFVTVVGSPKGISFSDITENSARVSWTPPRSRVDSYRVSYVPITGGTPNVVTVDGSKTRTKLVKLVPGVDYNVNIISVKGFEESE
In the case of B1, the “neurite and cell morphology after 40 hours” value in the assay with DRG cells was “much longer and less fasciculated”. In addition, in assay [3] (DRG, low density), the “neurite promoting activity on DRG cells” value was “significant increase both in the percentage of neurite-bearing cells and in neurite elongation”.
